# Measured values: US20250230171A1 (MOMA Therapeutics, Inc., priority 2023, published 2025)
# Read-outs that look alike come from different tables or passages of the source.
# What was measured:
# [1] = target: biotinylated Avi-POLθ[2-894] (Homo sapiens (Human), UniProt O75417); test: POLθ ATPase assay (ADP-Glo); conditions: n=2, read-out: Biochemical ATPase ADPGlo IC50
# DLD1 BRCA2 (−/−) cells = test: 7-day cell viability assay (CellTiter-Glo), DLD1 BRCA2 (−/−); assay type: cell-based, human; conditions: n=2, read-out: Viability IC50 (uM) DLD1 BRCA2 null
# In short: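 7-day growth assay in DLD1 cells with or without BRCA2; seeding densities chosen to keep log-linear growth. Compound: 10 uM top, 3-fold, 9 points. Endpoint: CTG ATP luminescence at RT.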
# DLD1 WT cells = test: 7-day cell viability assay (CellTiter-Glo), DLD1 parental (WT); assay type: cell-based, human; conditions: n=2
# [2] = Homo sapiens, DLD-1, 168 h, 7-day viability
# [3] = Homo sapiens, DLD-1, 168 h, 7-day CellTiter-Glo
# Chain of biotinylated Avi-POLθ[2-894] (O75417 2-894): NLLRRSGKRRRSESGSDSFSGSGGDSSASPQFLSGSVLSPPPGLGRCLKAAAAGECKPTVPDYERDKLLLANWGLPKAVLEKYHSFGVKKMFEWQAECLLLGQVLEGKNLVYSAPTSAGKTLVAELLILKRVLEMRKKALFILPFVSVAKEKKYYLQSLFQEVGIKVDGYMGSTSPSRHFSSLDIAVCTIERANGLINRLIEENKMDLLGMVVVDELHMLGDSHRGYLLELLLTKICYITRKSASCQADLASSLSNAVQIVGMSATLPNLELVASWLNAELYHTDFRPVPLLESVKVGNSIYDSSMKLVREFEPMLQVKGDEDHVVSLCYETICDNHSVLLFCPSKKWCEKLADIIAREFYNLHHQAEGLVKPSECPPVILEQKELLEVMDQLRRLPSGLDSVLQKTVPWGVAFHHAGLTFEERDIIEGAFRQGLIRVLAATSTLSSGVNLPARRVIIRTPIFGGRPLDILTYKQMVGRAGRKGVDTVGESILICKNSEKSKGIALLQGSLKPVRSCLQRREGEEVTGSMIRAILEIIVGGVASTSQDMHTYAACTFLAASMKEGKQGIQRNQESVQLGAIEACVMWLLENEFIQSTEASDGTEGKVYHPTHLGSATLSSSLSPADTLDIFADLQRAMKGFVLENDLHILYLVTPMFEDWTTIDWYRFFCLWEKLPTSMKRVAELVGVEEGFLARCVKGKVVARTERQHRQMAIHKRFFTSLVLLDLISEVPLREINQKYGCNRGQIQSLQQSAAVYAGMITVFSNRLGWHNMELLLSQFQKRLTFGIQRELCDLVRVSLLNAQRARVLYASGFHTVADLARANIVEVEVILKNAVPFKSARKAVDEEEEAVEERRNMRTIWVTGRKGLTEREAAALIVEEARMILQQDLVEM
Compound,IC50 [1] [nM],IC50 (DLD1 BRCA2 (−/−) cells; [2]) [µM],IC50 (DLD1 WT cells; [2]) [µM],further results
"2′-chloro-N-(5-(6- (difluoromethoxy)nicotinoyl)-5,6- dihydro-4H-pyrrolo[3,4-d]thiazol-2-yl)- 5′-methoxy-6-methyl-[4,4′-bipyridine]- 3-carboxamide [Example 32]",1 to 15,–,–,IC50 (DLD1 BRCA2 (−/−) cells; 7-day viability): 0.001 to 0.1 µM; IC50 (DLD1 WT cells; 7-day viability): 2 to 5 µM
"4-(5-Cyano-2-methoxyphenyl)-N-(5-(4-(difluoromethyl)-2-methoxybenzoyl)-5,6-dihydro-4H-pyrrolo[3,4-d]thiazol-2-yl)-6-methylnicotinamide [Example 481]",–,–,–,"IC50 ([1]; POLθ ATPase, ADP-Glo): 1 to 15 nM; IC50 (DLD1 BRCA2 (−/−) cells; 7-day CellTiter-Glo): 0.001 to 0.1 µM; IC50 (DLD1 WT cells; 7-day CellTiter-Glo): ≥ 10 µM"
COc1cnc(Cl)cc1-c1cc(C)ncc1C(=O)Nc1nc2c(s1)CN(C(=O)c1c(C(F)F)cnn1C)C2 (racemic),1 to 15,0.001 to 0.1,≥ 10,–
COc1cnc(Cl)cc1-c1cc(C)ncc1C(=O)Nc1nc2c(s1)CN(C(=O)c1cnn(C(F)F)c1)C2 (racemic),1 to 15,0.001 to 0.1,0.001 to 0.5,–
COc1ccccc1-c1cc(C)ncc1C(=O)Nc1nc2c(s1)CN(C(=O)C1CC(OC(F)F)C1)C2 (racemic),1 to 15,0.25 to 0.5,≥ 10,–
COc1ccc(C#N)cc1-c1cc(C)ncc1C(=O)Nc1nc2c(s1)CN(C(=O)c1cccnc1OC)C2 (racemic) [Example 127],1 to 15,0.001 to 0.1,≥ 10,–
"COc1cnc(Cl)cc1-c1cc(C)ncc1C(=O)Nc1nc2c(s1)CN(C(=O)C1CCCC(OC)C1)C2 (racemic) [Example 128, (Racemic) 2′-chloro-5′-methoxy-N-(5-(3-methoxycyclohexane-1-carbonyl)-5,6-dihydro-4H-pyrrolo[3,4-d]thiazol-2-yl)-6-methyl-[4,4′-bipyridine]-3-carboxamide]",1 to 15,0.001 to 0.1,≥ 10,–
"COc1cnc(Cl)cc1-c1cc(C)ncc1C(=O)Nc1nc2c(s1)CN(C(=O)c1nn(C)cc1Cl)C2 (racemic) [Example 152, (Racemic)-4-(5-Cyano-2-methoxyphenyl)-6-methyl-N-(6-(phenylamino)-4,5,6,7-tetrahydrobenzo[d]thizaol-2-yl)nicotinamide]",1 to 15,0.1 to 0.25,≥ 10,–
COc1ccc(C#N)cc1-c1cc(C)ncc1C(=O)Nc1nc2c(s1)CN(C(=O)C1CC(OC(C)C)C1)C2 (racemic) [Example 166],1 to 15,0.25 to 0.5,≥ 10,–
"COc1cnc(Cl)cc1-c1cc(C)ncc1C(=O)Nc1nc2c(s1)CN(C(=O)C1CCC(OC(F)(F)F)C1)C2 (racemic) [Example 397, (Racemic) 2′-chloro-5′-methoxy-6-methyl-N-(5-(3-(trifluoromethoxy)cyclopentane-1-carbonyl)-5,6-dihydro-4H-pyrrolo[3,4-d]thiazol-2-yl)-[4,4′-bipyridine]-3-carboxamide]",–,–,–,"IC50 ([1]; POLθ ATPase, ADP-Glo): 1 to 15 nM; IC50 (DLD1 BRCA2 (−/−) cells; [3]): 0.001 to 0.1 µM; IC50 (DLD1 WT cells; [3]): ≥ 10 µM"
"COc1cnc(Cl)cc1-c1cc(C)ncc1C(=O)Nc1nc2c(s1)CN(C(=O)c1ccc(C(F)(F)F)nc1OC)[C@H]2C (single isomer, unassigned) [Example 1041, (S or R)-2′-chloro-5′-methoxy-N-(5-(2-methoxy-6-(trifluoromethyl)nicotinoyl)-4-methyl-5,6-dihydro-4H-pyrrolo[3,4-d]thiazol-2-yl)-6-methyl-[4,4′-bipyridine]-3-carboxamide]",–,–,–,"IC50 ([1]; POLθ ATPase, ADP-Glo): 1 to 15 nM; IC50 (DLD1 BRCA2 (−/−) cells; [3]): 0.001 to 0.1 µM; IC50 (DLD1 WT cells; [3]): ≥ 10 µM"
"COc1cnc(Cl)cc1-c1cc(C)ncc1C(=O)Nc1nc2c(s1)C(C)N(C(=O)c1ccc(C(F)(F)F)nc1OC)C2 (single isomer, unassigned) [Example 1046, (R or S)-2′-chloro-5′-methoxy-N-(5-(2-methoxy-6-(trifluoromethyl)nicotinoyl)-6-methyl-5,6-dihydro-4H-pyrrolo[3,4-d]thiazol-2-yl)-6-methyl-[4,4′-bipyridine]-3-carboxamide]",–,–,–,"IC50 ([1]; POLθ ATPase, ADP-Glo): 1 to 15 nM; IC50 (DLD1 BRCA2 (−/−) cells; [3]): 0.001 to 0.1 µM; IC50 (DLD1 WT cells; [3]): ≥ 10 µM"
"COc1cnc(Cl)cc1-c1cc(C)ncc1C(=O)Nc1nc2c(s1)CN(C(=O)C1CCC(OC(F)F)CC1)C2 (stereo not drawn) [Example 2, (Cis and Trans) 2′-chloro-N-(5-(4-(difluoromethoxy)cyclohexane-1-carbonyl)-5,6-dihydro-4H-pyrrolo[3,4-d]thiazol-2-yl)-5′-methoxy-6-methyl-[4,4′-bipyridine]-3-carboxamide]",1 to 15,0.001 to 0.1,≥ 10,–
"COc1cnc(Cl)cc1-c1cc(C)ncc1C(=O)Nc1nc2c(s1)CN(C(=O)[C@@H]1C[C@H]1C(F)F)C2 [Example 3, 2′-chloro-N-(5-((1R,2R)-2-(difluoromethyl)cyclopropane-1-carbonyl)-5,6-dihydro-4H-pyrrolo[3,4-d]thiazol-2-yl)-5′-methoxy-6-methyl-[4,4′-bipyridine]-3-carboxamide]",1 to 15,0.001 to 0.1,2 to 5,–
"COc1cnc(Cl)cc1-c1cc(C)ncc1C(=O)Nc1nc2c(s1)CN(C(=O)c1cnn3c1CCC3)C2 [Example 4, 2′-chloro-N-(5-(5,6-dihydro-4H-pyrrolo[1,2-b]pyrazole-3-carbonyl)-5,6-dihydro-4H-pyrrolo[3,4-d]thiazol-2-yl)-5′-methoxy-6-methyl-[4,4′-bipyridine]-3-carboxamide]",1 to 15,0.001 to 0.1,0.001 to 0.5,–
"COc1cnc(Cl)cc1-c1cc(C)ncc1C(=O)Nc1nc2c(s1)CN(C(=O)c1c(C)nn(C)c1Cl)C2 [Example 5, 2′-chloro-N-(5-(5-chloro-1,3-dimethyl-1H-pyrazole-4-carbonyl)-5,6-dihydro-4H-pyrrolo[3,4-d]thiazol-2-yl)-5′-methoxy-6-methyl-[4,4′-bipyridine]-3-carboxamide]",1 to 15,0.001 to 0.1,≥ 10,–

# Further lines, with some results ahead:
IC50 [1] [nM],IC50 (DLD1 BRCA2 (−/−) cells; [2]) [µM],Compound,IC50 (DLD1 WT cells; [2]) [µM],further results
1 to 15,0.001 to 0.1,COc1cnc(Cl)cc1-c1cc(C)ncc1C(=O)Nc1nc2c(s1)CN(C(=O)C1CCC(OC(F)F)C1)C2 (stereo not drawn),≥ 10,–
1 to 15,0.1 to 0.25,COc1cn2cncc2cc1-c1cc(C)ncc1C(=O)Nc1nc2c(s1)CN(C(=O)c1c(Cl)cnn1C)C2,≥ 10,–
1 to 15,0.1 to 0.25,COc1cnc(Cl)cc1-c1cc(C)ncc1C(=O)Nc1nc2c(s1)CN(C(=O)c1ccccn1)C2,≥ 10,–
1 to 15,0.001 to 0.1,COc1cnc(Cl)cc1-c1cc(C)ncc1C(=O)Nc1nc2c(s1)CN(C(=O)c1ncc(Cl)cc1OC)C2,≥ 10,–
1 to 15,0.1 to 0.25,COc1cnc(Cl)cc1-c1cc(C)ncc1C(=O)Nc1nc2c(s1)CN(C(=O)c1ncc(C(F)F)cc1Cl)C2,≥ 10,–
1 to 15,0.001 to 0.1,COc1cnc(Cl)cc1-c1cc(C)ncc1C(=O)Nc1nc2c(s1)CN(C(=O)c1cccc3ccnn13)C2,≥ 10,–
1 to 15,0.001 to 0.1,COc1cnc(Cl)cc1-c1cc(C)ncc1C(=O)Nc1nc2c(s1)CN(C(=O)c1c(Cl)cnn1C(C)C)C2,≥ 10,–
1 to 15,0.1 to 0.25,COc1cnc(Cl)cc1-c1cc(C)ncc1C(=O)Nc1nc2c(s1)CN(C(=O)C1CC(C(F)F)C1)C2 (mixture of isomers) [Example 201],≥ 10,–
